Molecular target: T1, CD73 in human breast cancer samples (Homo sapiens, UniProt P21589)
T1 construct: cryosections of breast tumor samples as well as sentinel lymph node samples were investigated; from tissue; host or cells: primary breast tumors and sentinel lymph nodes of two patients, 6 µm cryosections
T1 sequence (P21589 27-574): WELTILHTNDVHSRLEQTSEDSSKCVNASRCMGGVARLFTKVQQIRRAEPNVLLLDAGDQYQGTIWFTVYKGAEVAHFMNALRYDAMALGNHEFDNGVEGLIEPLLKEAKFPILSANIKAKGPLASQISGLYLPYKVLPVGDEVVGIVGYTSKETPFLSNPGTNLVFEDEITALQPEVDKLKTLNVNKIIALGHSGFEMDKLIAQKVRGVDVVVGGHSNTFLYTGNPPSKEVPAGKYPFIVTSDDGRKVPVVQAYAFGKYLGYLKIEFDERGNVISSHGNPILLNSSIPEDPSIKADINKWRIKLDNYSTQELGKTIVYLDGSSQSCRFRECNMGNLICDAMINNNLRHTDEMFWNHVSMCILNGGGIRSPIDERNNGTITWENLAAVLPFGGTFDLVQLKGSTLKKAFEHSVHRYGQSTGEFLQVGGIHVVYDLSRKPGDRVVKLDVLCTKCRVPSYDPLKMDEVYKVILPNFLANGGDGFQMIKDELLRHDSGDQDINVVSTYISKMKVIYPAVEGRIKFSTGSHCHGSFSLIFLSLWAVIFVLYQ
Assay: Autoradiography on human breast tumor and sentinel lymph node cryosections
Format: binding
Details: autoradiography, cryosections
Description: To test specific radiotracer binding to its target, we performed in situ autoradiography. [^18F]2 was applied onto cryosections of neighboring slides of tumor tissues from primary breast tumors from patient X (Figure 4A) and patient Y (Figure 4B), used for immunohistochemistry and AMPase activity determination. Sentinel LN from patient Y was incubated with [^18F]1 (Figure 4C).
FIGURE 4 Autoradiographic imaging of ^18F‐labeled CD73 tracer binding to tissue samples of breast tumors and sentinel lymph nodes. Primary breast tumor (A, B) and LN cryosections (C) were incubated with [^18F]2 or [^18F]1 in the absence (control) and in the presence of an unlabeled CD73 inhibitor, AMPCP (13) or JMS04‐14 (14), as indicated. The samples were processed for autoradiographic analysis, as described in the materials and methods section. The white dotted lines outline the tissue boundaries. (D). Structures of CD73 inhibitors applied as blockers in this study.
For the assessment of ^18F-labeled CD73 tracer binding to human tissues, cryosections of breast tumor samples as well as sentinel lymph node samples were investigated. Cryosections were thawed and pre-incubated for 15 min at room temperature in 2-[4-(2-hydroxyethyl)piperazin-1-yl]ethanesulfonic acid buffer (HEPES). […] Blocking compounds were prepared according to the molar activity of the radiolabeled tracers [^18F]MRS-4648 and [^18F]PSB-19427 aiming at a 1000-fold excess of the blocking agent. For each tissue sample, neighboring sections were incubated for 20 min at room temperature with a mixture of 50µL of the radiotracer and 50µL of the classical CD73 inhibitor AMPCP (25 nmol, in PBS), or JMS0414 (61 nmol, in HEPES), or HEPES buffer respectively. After incubation, slides were washed three times with PBS and Aqua bidest, mounted on a slide holder for the image acquisition, and covered with protection and scintillation foils. Digital autoradiography measurement of each slide was performed for 60 minutes (Micro Imager, Biospace, France). Acquired data were corrected for radioactive decay in reference to the start of the acquisition as well as the start of the incubation.

Cn1c(=O)n([C@@H]2O[C@H](COP(=O)(O)CP(=O)(O)O)[C@@H](O)[C@H]2O)cc/c1=N/OCc1ccc(-c2cn(CC[18F])nn2)cc1 [[^18F]2, [^18F]-{[(2R,3S,4R,5R)-5-(4-{[(4-{1-[2-(fluoro)ethyl]-1H-1,2,3-triazol-4-yl}benzyl)-oxy]imino}-3-methyl-2-oxo-3,4-dihydropyrimidin-1(2H)-yl)-3,4-dihydroxytetra-hydrofuran-2-yl]methoxy}methylenebisphosphonic acid]
Tracer binding to CD73 in human breast cancer samples: selectively bind

CCCN(Cc1ccc(-c2cn(CC[18F])nn2)cc1)c1nc(Cl)nc2c1ncn2[C@@H]1O[C@H](COP(=O)(O)CP(=O)(O)O)[C@@H](O)[C@H]1O [[^18F]1, [^18F]-[((2R,3S,4R,5R)-5-{2-chloro-6-[(4-{1-[2-(fluoro)ethyl]-1H-1,2,3-triazol-4-yl}benzyl)-(propyl)amino]-9H-purin-9-yl}-3,4-dihydroxytetrahydrofuran-2-yl)methoxy]methylene-bisphosphonic acid]
Tracer binding to CD73 in human breast cancer samples: selectively bind

From paper PMC13077603, “Fluorine‐18‐Labeled Nucleotide Analogs Targeting Ecto‐5'‐Nucleotidase (CD73) for Positron Emission Tomography Imaging of Solid Tumors” (Angewandte Chemie (International Ed. in English), 2026)
